# Tests used:
# [1] = molecular target: T1, 5-Lipoxygenase (Rattus norvegicus, UniProt P12527); assay: ARBL whole cell 5-lipoxygenase assay (LTB4 formation in RBL-1 cells); type: cell-based; settings: A23187 (5 μM) stimulated, LTB4 formation by RIA, read-out: % Inhibition at 10 μM Conc, ARBL
# T1 construct: host or cells: RBL-1 (rat basophilic leukemia)
# T1 sequence (P12527 1-673): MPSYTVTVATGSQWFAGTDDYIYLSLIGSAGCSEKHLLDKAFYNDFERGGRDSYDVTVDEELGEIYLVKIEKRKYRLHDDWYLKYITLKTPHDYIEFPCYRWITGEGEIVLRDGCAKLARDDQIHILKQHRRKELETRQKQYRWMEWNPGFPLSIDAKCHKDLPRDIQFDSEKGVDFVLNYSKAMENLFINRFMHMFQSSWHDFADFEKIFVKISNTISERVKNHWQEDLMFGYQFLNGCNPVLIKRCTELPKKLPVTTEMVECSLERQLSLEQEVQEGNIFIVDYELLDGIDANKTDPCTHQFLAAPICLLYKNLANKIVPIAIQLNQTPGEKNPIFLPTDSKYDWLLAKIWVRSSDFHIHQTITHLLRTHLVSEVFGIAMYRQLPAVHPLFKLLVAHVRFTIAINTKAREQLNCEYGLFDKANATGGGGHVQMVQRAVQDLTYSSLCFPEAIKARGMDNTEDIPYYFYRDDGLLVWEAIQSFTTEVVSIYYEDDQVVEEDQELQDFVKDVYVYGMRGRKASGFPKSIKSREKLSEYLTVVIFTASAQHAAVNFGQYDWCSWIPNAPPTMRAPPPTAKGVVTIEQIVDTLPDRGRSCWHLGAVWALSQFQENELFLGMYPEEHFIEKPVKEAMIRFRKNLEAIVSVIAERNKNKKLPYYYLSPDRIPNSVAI
# Description: (§1) A description of each procedure follows. ARBL/ARBC Whole Cell 5-Lipoxygenase and Cyclooxygenase Assays The rat basophilic leukemia cell line (RBL-1) was obtained from the American Type Culture Collection (Rockville, Md.). Radioimmunoassay (RIA) kits of LTB4 and PGF2α were obtained from Amersham (Arlington Heights, Ill.) and Seragen (Boston, Mass.), respectively. All tissue culture media were obtained from GIBCO (Grand Island, N.Y.). RBL-1 cells are grown in suspension culture in Eagle's minimum essential medium supplemented with 12% fetal bovine serum at 37° C. in an incubator supplied with air-5% carbon dioxide. Cells are harvested by centrifugation. They are washed with cold phosphate buffered saline pH 7.4 (PBS; NaCl, 7.1 g; NaHPO, 1.15 g; KHPO, 0.2 g; and KCl, 0.2 g/l). Cells are finally suspended in PBS containing 1.0 mM calcium at a density of […] cells/ml. Cells are incubated with and without test agent (in DMSO) (1% DMSO is without effect on arachidonic acid metabolism) for ten minutes at room temperature. Calcium ionophore A23187 (5 μM) is added and cells are incubated for seven minutes at 37° C. The reaction is stopped by chilling the tubes on ice for ten minutes. Cells are separated by centrifugation and the supernatant is stored at […]. Aliquots (100 μL) are analyzed for LTB4 and PGF2α using radioimmunoassay kits as provided by the supplier. Biochemical data obtained from this whole cell assay may be shown as IC50 s which are calculated as the amount of test compound causing 50% inhibition of LTB4 or PGF2α formation. The following Table exemplifies the data for the present invention.
# [2] = system: Cyclooxygenase; assay: ARBC whole cell cyclooxygenase assay (PGF2α formation in RBL-1 cells); type: cell-based, rat; settings: A23187 (5 μM) stimulated, PGF2α formation by RIA
# Description: as §1
SMILES,inhibition at 10 µM [1],"% Inhibition at 10 μM Conc, ARBC [2]"
"CC(C)(C)c1nc(C=C2SC(=N)NC2=O)nc(C(C)(C)C)c1O [Example 7, 5-[[4,6-Bis-(1,1-dimethylethyl]-5-hydroxy-2-pyrimidinyl]methylene]-2-imino-4-thiazolidinone]",32%,56%
"CON1CCC(=Cc2nc(C(C)(C)C)c(O)c(C(C)(C)C)n2)C1=O [Example 15, 3-[[4,6-Bis-(1,1-dimethylethyl)-5-hydroxy-2-pyrimidinyl]methylene]-N-methoxy-pyrrolidin-2-one]",46%,88%
"CC(C)(C)c1nc(C=C2SC(=S)NC2=O)nc(C(C)(C)C)c1O [Example 6, 5-[[4,6-Bis-(1,1-dimethylethyl)-5-hydroxy-2-pyrimidinyl]methylene]-2-thioxo-4-thiazolidinone]",91%,81%
CC(C)(C)c1nc(C=C2SC(=O)NC2=O)nc(C(C)(C)C)c1O [Example 8],60%,68%
CC(C)(C)c1nc(C=C2CCOC2=O)nc(C(C)(C)C)c1O [Example 16],100%,93%

# Reference: patent US5270319A, “5-hydroxy-2-pyrimidinylmethylene derivatives useful as antiinflammatory agents” (Warner-Lambert Company, priority 1992, dated 1993)
